According to patent publication US9284321B2, “Piperazino[1,2-a]indol-1-ones and [1,4]diazepino[1,2-a]indol-1-one” (Hoffmann-La Roche Inc., priority 2012, dated 2016):

Key:
[1] = tested on: human embryonic stem cell derived neural stem cells (NSCs); experiment: Neural Stem Cell Proliferation Assay (neurogenesis assay, ATP levels by CellTiterGlo); assay type: cell-based; details: 96 h, compound concentration at which 150% activity of control (100%) is reached, NSC proliferation by ATP level after 4 days incubation, dose response 8 μM to 8 nM
How it was run: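 Human ESC-derived NSCs (dual SMAD inhibition) seeded 4 h before compounds, 11-point 2-fold series 8 μM–8 nM; 4 days at 37 °C, 5% CO2. ATP by CellTiterGlo luminescence as cell-number proxy, response as % of media control (0.25% DMSO); EC150 = concentration giving 150% of control.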

Cc1c2n(c3c(-c4ccc(Cl)s4)cc(F)cc13)CCNC2=O [Example 183, 6-(5-Chloro-thiophen-2-yl)-8-fluoro-10-methyl-3,4-dihydro-2H-pyrazino[1,2-a]indol-1-one]
EC (150% of control) [1]: 0.19 µM
melting point: 185 °C

Cc1c2n(c3c(-c4ccc(CO)cc4)cc(F)cc13)CCNC2=O [Example 130, 8-Fluoro-6-(4-hydroxymethyl-phenyl)-10-methyl-3,4-dihydro-2H-pyrazino[1,2-a]indol-1-one]
EC (150% of control) [1]: 0.011 µM
melting point: 220 °C

C[C@@H]1CNC(=O)c2cc3cc(F)cc(-c4cc(F)cc(F)c4)c3n21 [Example 9, (R)-6-(3,5-Difluoro-phenyl)-8-fluoro-4-methyl-3,4-dihydro-2H-pyrazino[1,2-a]indol-1-one]
EC (150% of control) [1]: 0.37 µM
melting point: 229.5 °C

Cc1cc(-c2ccc(Cl)cc2)c2c(c1)cc1n2CCNC1=O [Example 59, 6-(4-Chloro-phenyl)-8-methyl-3,4-dihydro-2H-pyrazino[1,2-a]indol-1-one]
EC (150% of control) [1]: 0.18 µM
melting point: 269 °C

COc1ccc(-c2cc(Cl)cc3cc4n(c23)CCNC4=O)cc1 [Example 52, 8-Chloro-6-(4-methoxy-phenyl)-3,4-dihydro-2H-pyrazino[1,2-a]indol-1-one]
EC (150% of control) [1]: 0.022 µM
melting point: 282.5 °C

C[C@@H]1CNC(=O)c2cc3cccc(-c4ccncc4)c3n21 [Example 3, (R)-4-Methyl-6-pyridin-4-yl-3,4-dihydro-2H-pyrazino[1,2-a]indol-1-one]
EC (150% of control) [1]: 2.31 µM
melting point: 264 °C

Cc1c2n(c3c(-c4ccc(N(C)C)cc4)cc(Cl)cc13)CCNC2=O [Example 113, 8-Chloro-6-(4-dimethylamino-phenyl)-10-methyl-3,4-dihydro-2H-pyrazino[1,2-a]indol-1-one]
EC (150% of control) [1]: 0.01 µM
melting point: 227 °C

Cc1c2n(c3c(-c4ccc5c(c4)OCO5)cc(F)cc13)CCNC2=O [Example 123, 6-Benzo[1,3]dioxol-5-yl-8-fluoro-10-methyl-3,4-dihydro-2H-pyrazino[1,2-a]indol-1-one]
EC (150% of control) [1]: 0.031 µM
melting point: 206 °C

C[C@@H]1CNC(=O)c2cc3cc(F)cc(-c4ccccc4)c3n21 [Example 4, (R)-8-Fluoro-4-methyl-6-phenyl-3,4-dihydro-2H-pyrazino[1,2-a]indol-1-one]
EC (150% of control) [1]: 0.37 µM
melting point: 243.5 °C

N#Cc1cc(-c2ccccc2)c2c(c1)cc1n2CCNC1=O [Example 93, 1-Oxo-6-phenyl-1,2,3,4-tetrahydro-pyrazino[1,2-a]indole-8-carbonitrile]
EC (150% of control) [1]: 0.035 µM
melting point: 265.5 °C

N#Cc1cc(-c2cccc(F)c2)c2c(c1)cc1n2CCNC1=O [Example 223, 6-(3-Fluorophenyl)-1-oxo-3,4-dihydro-2H-pyrazino[1,2-a]indole-8-carbonitrile]
EC (150% of control) [1]: 0.076 µM
melting point: 248.5 °C

Cc1c2n(c3c(-c4ccnc(F)c4)cc(C#N)cc13)CCNC2=O [Example 168, 6-(2-Fluoro-pyridin-4-yl)-10-methyl-1-oxo-1,2,3,4-tetrahydro-pyrazino[1,2-a]indole-8-carbonitrile]
EC (150% of control) [1]: 0.064 µM
melting point: 256 °C

N#Cc1cc(-c2cccc(F)c2)c2c(c1)cc1n2CCCNC1=O [Example 239, 7-(3-Fluorophenyl)-1-oxo-2,3,4,5-tetrahydro-[1,4]diazepino[1,2-a]indole-9-carbonitrile]
EC (150% of control) [1]: 0.61 µM
melting point: 210.5 °C

Cc1ccc(-c2cc(C#N)cc3cc4n(c23)CCCNC4=O)cc1F [Example 253, 7-(3-Fluoro-4-methylphenyl)-1-oxo-2,3,4,5-tetrahydro-[1,4]diazepino[1,2-a]indole-9-carbonitrile]
EC (150% of control) [1]: 0.65 µM
melting point: 250.5 °C

Cc1c2n(c3c(-c4ccccc4)cc(F)cc13)CCNC2=O [Example 80, 8-Fluoro-10-methyl-6-phenyl-3,4-dihydro-2H-pyrazino[1,2-a]indol-1-one]
EC (150% of control) [1]: 0.098 µM
melting point: 244 °C

N#Cc1cc(-c2ccc(Cl)cc2Cl)c2c(c1)cc1n2CCCNC1=O [Example 236, 7-(2,4-Dichlorophenyl)-1-oxo-2,3,4,5-tetrahydro-[1,4]diazepino[1,2-a]indole-9-carbonitrile]
EC (150% of control) [1]: 0.13 µM
melting point: 253 °C

Cc1c2n(c3c(-c4ccc(Cl)cc4F)cc(F)cc13)CCNC2=O [Example 121, 6-(4-Chloro-2-fluoro-phenyl)-8-fluoro-10-methyl-3,4-dihydro-2H-pyrazino[1,2-a]indol-1-one]
EC (150% of control) [1]: 0.01 µM
melting point: 221 °C

Cc1c2n(c3c(-c4ccc(Cl)cc4Cl)cc(C#N)cc13)CCNC2=O [Example 167, 6-(2,4-Dichloro-phenyl)-10-methyl-1-oxo-1,2,3,4-tetrahydro-pyrazino[1,2-a]indole-8-carbonitrile]
EC (150% of control) [1]: 0.002 µM
melting point: 274 °C

Cc1c2n(c3c(-c4ccc(C(F)(F)F)cc4)cc(C#N)cc13)CCNC2=O [Example 165, 10-Methyl-1-oxo-6-(4-trifluoromethyl-phenyl)-1,2,3,4-tetrahydro-pyrazino[1,2-a]indole-8-carbonitrile]
EC (150% of control) [1]: 0.018 µM
melting point: 282 °C

Cc1c2n(c3c(-c4ccc5c(c4)CCO5)cc(F)cc13)CCNC2=O [Example 129, 6-(2,3-Dihydro-benzofuran-5-yl)-8-fluoro-10-methyl-3,4-dihydro-2H-pyrazino[1,2-a]indol-1-one]
EC (150% of control) [1]: 0.022 µM
melting point: 251 °C

Cc1c2n(c3c(-c4ccnc(F)c4)cc(C#N)cc13)CCCNC2=O [Example 208, 7-(2-Fluoropyridin-4-yl)-11-methyl-1-oxo-2,3,4,5-tetrahydro-[1,4]diazepino[1,2-a]indole-9-carbonitrile]
EC (150% of control) [1]: 0.049 µM
melting point: 264 °C

Cc1c2n(c3c(-c4ccc(N)nc4)cc(C#N)cc13)CCCNC2=O [Example 251, 7-(6-Aminopyridin-3-yl)-11-methyl-1-oxo-2,3,4,5-tetrahydro-[1,4]diazepino[1,2-a]indole-9-carbonitrile]
EC (150% of control) [1]: 0.29 µM
melting point: 306 °C

Cc1c2n(c3c(-c4ccc(F)cc4F)cc(Cl)cc13)CCNC2=O [Example 100, 8-Chloro-6-(2,4-difluoro-phenyl)-10-methyl-3,4-dihydro-2H-pyrazino[1,2-a]indol-1-one]
EC (150% of control) [1]: 0.009 µM
melting point: 238 °C

N#Cc1cc(-c2ccc(F)cc2)c2c(c1)cc1n2CCCNC1=O [Example 215, 7-(4-Fluorophenyl)-1-oxo-2,3,4,5-tetrahydro-[1,4]diazepino[1,2-a]indole-9-carbonitrile]
EC (150% of control) [1]: 0.09 µM
melting point: 230 °C

Cc1c2n(c3c(-c4ccc(Cl)c(C(F)(F)F)c4)cc(Cl)cc13)CCNC2=O [Example 135, 8-Chloro-6-(4-chloro-3-trifluoromethyl-phenyl)-10-methyl-3,4-dihydro-2H-pyrazino[1,2-a]indol-1-one]
EC (150% of control) [1]: 0.036 µM
melting point: 268 °C

N#Cc1cc(-c2cccnc2)c2c(c1)cc1n2CCNC1=O [Example 229, 1-Oxo-6-pyridin-3-yl-3,4-dihydro-2H-pyrazino[1,2-a]indole-8-carbonitrile]
EC (150% of control) [1]: 0.94 µM
melting point: 272.5 °C

COc1ccc(-c2c(F)c(F)cc3cc4n(c23)CCCNC4=O)cc1 [Example 41, 8,9-Difluoro-7-(4-methoxy-phenyl)-2,3,4,5-tetrahydro-[1,4]diazepino[1,2-a]indol-1-one]
EC (150% of control) [1]: 0.006 µM
melting point: 182.5 °C

C[C@@H]1CNC(=O)c2cc3cc(F)cc(-c4ccc(Cl)cc4)c3n21 [Example 11, (R)-6-(4-Chloro-phenyl)-8-fluoro-4-methyl-3,4-dihydro-2H-pyrazino[1,2-a]indol-1-one]
EC (150% of control) [1]: 0.1 µM
melting point: 282.5 °C

Cc1c2n(c3c(-c4nccs4)cc(F)cc13)CCNC2=O [Example 171, 8-Fluoro-10-methyl-6-thiazol-2-yl-3,4-dihydro-2H-pyrazino[1,2-a]indol-1-one]
EC (150% of control) [1]: 0.36 µM
melting point: 268 °C

N#Cc1cc(-c2ccc(F)c(F)c2)c2c(c1)cc1n2CCNC1=O [Example 76, 6-(3,4-Difluoro-phenyl)-1-oxo-1,2,3,4-tetrahydro-pyrazino[1,2-a]indole-8-carbonitrile]
EC (150% of control) [1]: 0.02 µM
melting point: 289.5 °C

Cc1c2n(c3c(-c4ccc([N+](=O)[O-])cc4)cc(C#N)cc13)CCNC2=O [Example 276, 10-Methyl-6-(4-nitrophenyl)-1-oxo-3,4-dihydro-2H-pyrazino[1,2-a]indole-8-carbonitrile]
EC (150% of control) [1]: 0.11 µM
melting point: 312 °C

O=C1NCCCn2c1cc1cc(F)cc(-c3ccncc3)c12 [Example 20, 9-Fluoro-7-pyridin-4-yl-2,3,4,5-tetrahydro-[1,4]diazepino[1,2-a]indol-1-one]
EC (150% of control) [1]: 0.037 µM
melting point: 309 °C

COc1ccc(-c2cc(Cl)cc3cc4n(c23)CCCNC4=O)cc1 [Example 54, 9-Chloro-7-(4-methoxy-phenyl)-2,3,4,5-tetrahydro-[1,4]diazepino[1,2-a]indol-1-one]
EC (150% of control) [1]: 0.07 µM
melting point: 218 °C

Cc1c2n(c3c(-c4ccc(Cl)c(F)c4)cc(F)cc13)CCNC2=O [Example 85, 6-(4-Chloro-3-fluoro-phenyl)-8-fluoro-10-methyl-3,4-dihydro-2H-pyrazino[1,2-a]indol-1-one]
EC (150% of control) [1]: 0.04 µM
melting point: 216 °C

Cc1c2n(c3c(-c4cccc(C#N)c4)cc(Cl)cc13)CCNC2=O [Example 117, 3-(8-Chloro-10-methyl-1-oxo-1,2,3,4-tetrahydro-pyrazino[1,2-a]indol-6-yl)-benzonitrile]
EC (150% of control) [1]: 0.4 µM
melting point: 199 °C
